Results reported in ChEMBL document CHEMBL1123976, “Synthesis and pharmacological characterization of 1-phenyl-, 4-phenyl-, and 1-benzyl-1,2,3,4-tetrahydroisoquinolines as dopamine receptor ligands” (J Med Chem, 1988).

Assays:
D(2) dopamine receptor = D(2) dopamine receptor (Rattus norvegicus, UniProt P61169)
Description: Inhibition of [3H]spiperone binding to Dopamine receptor D2 at 0.02 nM

D(1A) dopamine receptor = D(1A) dopamine receptor (Rattus norvegicus, UniProt P18901)
[1] = Inhibition of Dopamine-stimulated adenylate cyclase obtained from rat corpus striatum was determined by the conversion of [32P]ATP to [32P]-cAMP

D(2) dopamine receptor, sequence (P61169 whole entry): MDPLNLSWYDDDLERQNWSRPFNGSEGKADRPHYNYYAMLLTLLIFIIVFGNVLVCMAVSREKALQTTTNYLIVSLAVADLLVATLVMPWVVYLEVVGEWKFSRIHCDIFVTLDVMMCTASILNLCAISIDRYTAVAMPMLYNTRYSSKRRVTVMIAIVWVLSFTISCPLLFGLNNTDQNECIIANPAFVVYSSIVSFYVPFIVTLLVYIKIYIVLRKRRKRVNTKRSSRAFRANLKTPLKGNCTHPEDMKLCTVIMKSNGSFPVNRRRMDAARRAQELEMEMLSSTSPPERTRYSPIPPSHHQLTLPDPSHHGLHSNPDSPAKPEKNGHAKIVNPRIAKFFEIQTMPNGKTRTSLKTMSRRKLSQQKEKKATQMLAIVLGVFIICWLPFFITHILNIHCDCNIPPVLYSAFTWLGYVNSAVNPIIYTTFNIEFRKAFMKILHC
D(1A) dopamine receptor, sequence (P18901 whole entry): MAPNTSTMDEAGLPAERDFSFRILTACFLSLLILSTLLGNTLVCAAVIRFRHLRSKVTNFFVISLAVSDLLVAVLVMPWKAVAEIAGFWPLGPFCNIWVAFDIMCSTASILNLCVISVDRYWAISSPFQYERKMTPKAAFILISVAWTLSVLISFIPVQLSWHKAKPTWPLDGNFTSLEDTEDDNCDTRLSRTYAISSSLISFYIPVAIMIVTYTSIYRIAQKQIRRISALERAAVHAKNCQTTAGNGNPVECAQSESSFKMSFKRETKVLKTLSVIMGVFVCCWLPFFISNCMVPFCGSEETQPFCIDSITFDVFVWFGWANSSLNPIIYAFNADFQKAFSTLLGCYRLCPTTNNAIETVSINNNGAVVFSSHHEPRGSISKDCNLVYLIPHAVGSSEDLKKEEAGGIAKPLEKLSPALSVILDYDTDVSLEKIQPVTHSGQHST

Row | SMILES | Ki (D(2) dopamine receptor) [nM] | Ki (D(1A) dopamine receptor) [nM] | Ki [1] [nM]
1 | CN1CCc2cc(Cl)c(O)cc2[C@H]1c1ccccc1 | 19200 | 442 | 
2 | CN1CCc2cc(Cl)c(O)cc2C1Cc1ccccc1 (racemic) | 287 | 53.2 | 
3 | CN1Cc2cc(Cl)c(O)cc2C(c2ccccc2)C1 (racemic) | 522 | 174 | 
4 | Oc1cc2c(cc1Cl)CNCC2c1ccccc1 (racemic) | 3620 | 565 | 
5 | Oc1cc2c(cc1Cl)CCN[C@H]2c1ccccc1 | 3750 | 140 | 
6 | Oc1cc2c(cc1Cl)CCN[C@@H]2c1ccccc1 | 26300 | 743 | 
7 | CCCN1CCc2cc(Cl)c(O)cc2[C@@H]1c1ccccc1 | 1900 | 179 | 
8 | Oc1cc2c(cc1Cl)CCNCC2c1ccccc1 (stereo unspecified) | 676 | 2.35 | 
9 | CN1CCc2cc(Cl)c(O)cc2C1c1ccccc1 (racemic) | 915 | 12.5 | 8.98
10 | CN1CCc2cc(Cl)c(O)cc2[C@@H]1c1ccccc1 | 1850 | 6.6 | 
